Results: ChEMBL document CHEMBL5303573, “Mapping human microbiome drug metabolism by gut bacteria and their genes” (Nature, 2019)

Legend:
[1] = The drug is tested on Eggerthella lenta strain: ATCC25559 for biotransformation. The drug concentrations were measured before and after a 12-h incubation by liquid-chromatography-coupled mass spectrometry (LC–MS); conditions: 2 µM
[2] = The drug is tested on Bacteroides cellulosilyticus strain: DSM14838 for biotransformation. The drug concentrations were measured before and after a 12-h incubation by liquid-chromatography-coupled mass spectrometry (LC–MS); conditions: 2 µM
[3] = The drug is tested on Bacteroides coprophilus strain: DSM18228 for biotransformation. The drug concentrations were measured before and after a 12-h incubation by liquid-chromatography-coupled mass spectrometry (LC–MS); conditions: 2 µM
[4] = The drug is tested on Bacteroides dorei strain: DSM17855 for biotransformation. The drug concentrations were measured before and after a 12-h incubation by liquid-chromatography-coupled mass spectrometry (LC–MS); conditions: phocaeicola dorei, 2 µM
[5] = The drug is tested on Bacteroides fragilis strain: ATCC43859 for biotransformation. The drug concentrations were measured before and after a 12-h incubation by liquid-chromatography-coupled mass spectrometry (LC–MS); conditions: 2 µM
[6] = The drug is tested on Bacteroides ovatus strain: ATCC8483 for biotransformation. The drug concentrations were measured before and after a 12-h incubation by liquid-chromatography-coupled mass spectrometry (LC–MS); conditions: 2 µM
[7] = The drug is tested on Bacteroides sp. WH2 strain: WH2 for biotransformation. The drug concentrations were measured before and after a 12-h incubation by liquid-chromatography-coupled mass spectrometry (LC–MS); conditions: bacteroides sp. wh2, 12 h, 2 µM
[8] = The drug is tested on Bacteroides xylanisolvens strain: DSM18836 for biotransformation. The drug concentrations were measured before and after a 12-h incubation by liquid-chromatography-coupled mass spectrometry (LC–MS); conditions: 2 µM
[9] = The drug is tested on Blautia luti strain: DSM14534 for biotransformation. The drug concentrations were measured before and after a 12-h incubation by liquid-chromatography-coupled mass spectrometry (LC–MS); format: ADME; design: dose 2 uM, timepoint 0 vs 12 hours; conditions: 2 µM
[10] = The drug is tested on Clostridium ramosum strain: DSM1402 for biotransformation. The drug concentrations were measured before and after a 12-h incubation by liquid-chromatography-coupled mass spectrometry (LC–MS); conditions: thomasclavelia ramosa, 2 µM
[11] = The drug is tested on Clostridium symbiosum strain: ATCC14940 for biotransformation. The drug concentrations were measured before and after a 12-h incubation by liquid-chromatography-coupled mass spectrometry (LC–MS); conditions: 2 µM
[12] = The drug is tested on Coprococcus comes strain: ATCC27758 for biotransformation. The drug concentrations were measured before and after a 12-h incubation by liquid-chromatography-coupled mass spectrometry (LC–MS); format: ADME; design: dose 2 uM, timepoint 0 vs 12 hours; conditions: 2 µM
[13] = The drug is tested on Enterococcus faecalis strain: V583 for biotransformation. The drug concentrations were measured before and after a 12-h incubation by liquid-chromatography-coupled mass spectrometry (LC–MS); conditions: 2 µM
[14] = The drug is tested on Eubacterium ventriosum strain: ATCC27560 for biotransformation. The drug concentrations were measured before and after a 12-h incubation by liquid-chromatography-coupled mass spectrometry (LC–MS); format: ADME; design: dose 2 uM, timepoint 0 vs 12 hours; conditions: 2 µM
[15] = The drug is tested on Ruminococcus torques strain: ATCC27756 for biotransformation. The drug concentrations were measured before and after a 12-h incubation by liquid-chromatography-coupled mass spectrometry (LC–MS); format: ADME; design: dose 2 uM, timepoint 0 vs 12 hours; conditions: 2 µM
[16] = The drug is tested on Edwardsiella tarda strain: ATCC23685 for biotransformation. The drug concentrations were measured before and after a 12-h incubation by liquid-chromatography-coupled mass spectrometry (LC–MS); conditions: 2 µM
[17] = The drug is tested on Providencia rettgeri strain: DSM1131 for biotransformation. The drug concentrations were measured before and after a 12-h incubation by liquid-chromatography-coupled mass spectrometry (LC–MS); format: ADME; design: dose 2 uM, timepoint 0 vs 12 hours; conditions: 2 µM
[18] = bacteroides eggerthii, 12 h, 2 µM
Description: The drug is tested on Bacteroides eggerthii strain: DSM20697 for biotransformation. The drug concentrations were measured before and after a 12-h incubation by liquid-chromatography-coupled mass spectrometry (LC–MS)

[19] = bacteroides thetaiotaomicron, 12 h, 2 µM
Description: The drug is tested on Bacteroides thetaiotaomicron strain: 7330 for biotransformation. The drug concentrations were measured before and after a 12-h incubation by liquid-chromatography-coupled mass spectrometry (LC–MS)

[20] = akkermansia muciniphila, 12 h, 2 µM
Description: The drug is tested on Akkermansia muciniphila strain: ATCC BAA-835 for biotransformation. The drug concentrations were measured before and after a 12-h incubation by liquid-chromatography-coupled mass spectrometry (LC–MS)

| Compound | Bacterial Biotransformation [1] | Bacterial Biotransformation [2] | Bacterial Biotransformation [3] | Bacterial Biotransformation [4] | Bacterial Biotransformation [5] | Bacterial Biotransformation [6] | Bacterial Biotransformation [7] | Bacterial Biotransformation [8] | Bacterial Biotransformation [9] | Bacterial Biotransformation [10] | Bacterial Biotransformation [11] | Bacterial Biotransformation [12] | Bacterial Biotransformation [13] | Bacterial Biotransformation [14] | Bacterial Biotransformation [15] | Bacterial Biotransformation [16] | Bacterial Biotransformation [17] | Bacterial Biotransformation [18] | Bacterial Biotransformation [19] | Bacterial Biotransformation [20] |
| --- | --- | --- | --- | --- | --- | --- | --- | --- | --- | --- | --- | --- | --- | --- | --- | --- | --- | --- | --- | --- |
| CC(Oc1c(Cl)cccc1Cl)C1=NCCN1 (stereo not given) [LOFEXIDINE] | Compound metabolized | Compound metabolized | Compound metabolized | Compound metabolized | Compound metabolized | Compound NOT metabolized | Compound metabolized | Compound NOT metabolized | Compound metabolized | Compound metabolized | Compound metabolized | Compound metabolized | Compound NOT metabolized | Compound NOT metabolized | Compound metabolized | Compound metabolized | Compound metabolized | Compound metabolized | Compound metabolized | Compound metabolized |
| CC[C@H](C)C(=O)O[C@H]1C[C@@H](C)C=C2C=C[C@H](C)[C@H](CC[C@@H]3C[C@@H](O)CC(=O)O3)[C@H]21 [LOVASTATIN] | Compound NOT metabolized | Compound metabolized | Compound NOT metabolized | Compound metabolized | Compound NOT metabolized | Compound NOT metabolized | Compound NOT metabolized | Compound NOT metabolized | Compound NOT metabolized | Compound NOT metabolized | Compound NOT metabolized | Compound NOT metabolized | Compound metabolized | Compound NOT metabolized | Compound NOT metabolized | Compound NOT metabolized | Compound metabolized | Compound NOT metabolized | Compound metabolized | Compound NOT metabolized |
| CC[C@@H](CO)NC(=O)[C@@H]1C=C2c3cccc4c3c(cn4C)C[C@H]2N(C)C1.O=C(O)/C=C\C(=O)O [METHYSERGIDE MALEATE] | Compound metabolized | Compound metabolized | Compound metabolized | Compound metabolized | Compound NOT metabolized | Compound metabolized | Compound metabolized | Compound metabolized | Compound metabolized | Compound metabolized | Compound metabolized | Compound metabolized | Compound metabolized | Compound metabolized | Compound metabolized | Compound metabolized | Compound metabolized | Compound metabolized | Compound metabolized | Compound metabolized |
| CC[C@H](C)C(=O)O[C@H]1CCC=C2C=C[C@H](C)[C@H](CC[C@@H]3C[C@@H](O)CC(=O)O3)[C@H]21 [MEVASTATIN] | Compound metabolized | Compound metabolized | Compound metabolized | Compound metabolized | Compound NOT metabolized | Compound metabolized | Compound metabolized | Compound metabolized | Compound metabolized | Compound metabolized | Compound metabolized | Compound metabolized | Compound metabolized | Compound metabolized | Compound metabolized | Compound metabolized | Compound metabolized | Compound metabolized | Compound metabolized | Compound metabolized |
| COc1c(C)c2c(c(O)c1C/C=C(\C)CCC(=O)OCCN1CCOCC1)C(=O)OC2 [MYCOPHENOLATE MOFETIL] | Compound metabolized | Compound metabolized | Compound metabolized | Compound metabolized | Compound metabolized | Compound metabolized | Compound metabolized | Compound metabolized | Compound metabolized | Compound metabolized | Compound metabolized | Compound metabolized | Compound metabolized | Compound metabolized | Compound metabolized | Compound metabolized | Compound metabolized | Compound metabolized | Compound metabolized | Compound metabolized |
| COc1ccc2c(c1OC)C(=O)O[C@@H]2[C@H]1c2c(cc3c(c2OC)OCO3)CCN1C [NOSCAPINE] | Compound NOT metabolized | Compound metabolized | Compound metabolized | Compound metabolized | Compound NOT metabolized | Compound metabolized | Compound NOT metabolized | Compound metabolized | Compound metabolized | Compound NOT metabolized | Compound metabolized | Compound metabolized | Compound metabolized | Compound metabolized | Compound metabolized | Compound metabolized | Compound metabolized | Compound NOT metabolized | Compound metabolized | Compound metabolized |
| COc1ccc2[nH]c([S+]([O-])Cc3ncc(C)c(OC)c3C)nc2c1 (stereo not given) [OMEPRAZOLE] | Compound metabolized | Compound metabolized | Compound metabolized | Compound metabolized | Compound metabolized | Compound metabolized | Compound metabolized | Compound metabolized | Compound metabolized | Compound metabolized | Compound metabolized | Compound metabolized | Compound metabolized | Compound metabolized | Compound metabolized | Compound metabolized | Compound metabolized | Compound metabolized | Compound metabolized | Compound metabolized |
| COc1ccnc(C[S+]([O-])c2nc3ccc(OC(F)F)cc3[nH]2)c1OC (stereo not given) [PANTOPRAZOLE] | Compound metabolized | Compound metabolized | Compound metabolized | Compound metabolized | Compound metabolized | Compound metabolized | Compound metabolized | Compound metabolized | Compound metabolized | Compound metabolized | Compound metabolized | Compound metabolized | Compound metabolized | Compound metabolized | Compound metabolized | Compound metabolized | Compound metabolized | Compound metabolized | Compound metabolized | Compound metabolized |
